These results are taken from ChEMBL document CHEMBL3351361, “Fragment-based screening of the bromodomain of ATAD2” (J Med Chem, 2014).

SMILES strings stand for the structures.

In the test the target is T1, ATPase family AAA domain-containing protein 2 (Homo sapiens, UniProt Q6PL18).
T1 sequence (Q6PL18 whole entry): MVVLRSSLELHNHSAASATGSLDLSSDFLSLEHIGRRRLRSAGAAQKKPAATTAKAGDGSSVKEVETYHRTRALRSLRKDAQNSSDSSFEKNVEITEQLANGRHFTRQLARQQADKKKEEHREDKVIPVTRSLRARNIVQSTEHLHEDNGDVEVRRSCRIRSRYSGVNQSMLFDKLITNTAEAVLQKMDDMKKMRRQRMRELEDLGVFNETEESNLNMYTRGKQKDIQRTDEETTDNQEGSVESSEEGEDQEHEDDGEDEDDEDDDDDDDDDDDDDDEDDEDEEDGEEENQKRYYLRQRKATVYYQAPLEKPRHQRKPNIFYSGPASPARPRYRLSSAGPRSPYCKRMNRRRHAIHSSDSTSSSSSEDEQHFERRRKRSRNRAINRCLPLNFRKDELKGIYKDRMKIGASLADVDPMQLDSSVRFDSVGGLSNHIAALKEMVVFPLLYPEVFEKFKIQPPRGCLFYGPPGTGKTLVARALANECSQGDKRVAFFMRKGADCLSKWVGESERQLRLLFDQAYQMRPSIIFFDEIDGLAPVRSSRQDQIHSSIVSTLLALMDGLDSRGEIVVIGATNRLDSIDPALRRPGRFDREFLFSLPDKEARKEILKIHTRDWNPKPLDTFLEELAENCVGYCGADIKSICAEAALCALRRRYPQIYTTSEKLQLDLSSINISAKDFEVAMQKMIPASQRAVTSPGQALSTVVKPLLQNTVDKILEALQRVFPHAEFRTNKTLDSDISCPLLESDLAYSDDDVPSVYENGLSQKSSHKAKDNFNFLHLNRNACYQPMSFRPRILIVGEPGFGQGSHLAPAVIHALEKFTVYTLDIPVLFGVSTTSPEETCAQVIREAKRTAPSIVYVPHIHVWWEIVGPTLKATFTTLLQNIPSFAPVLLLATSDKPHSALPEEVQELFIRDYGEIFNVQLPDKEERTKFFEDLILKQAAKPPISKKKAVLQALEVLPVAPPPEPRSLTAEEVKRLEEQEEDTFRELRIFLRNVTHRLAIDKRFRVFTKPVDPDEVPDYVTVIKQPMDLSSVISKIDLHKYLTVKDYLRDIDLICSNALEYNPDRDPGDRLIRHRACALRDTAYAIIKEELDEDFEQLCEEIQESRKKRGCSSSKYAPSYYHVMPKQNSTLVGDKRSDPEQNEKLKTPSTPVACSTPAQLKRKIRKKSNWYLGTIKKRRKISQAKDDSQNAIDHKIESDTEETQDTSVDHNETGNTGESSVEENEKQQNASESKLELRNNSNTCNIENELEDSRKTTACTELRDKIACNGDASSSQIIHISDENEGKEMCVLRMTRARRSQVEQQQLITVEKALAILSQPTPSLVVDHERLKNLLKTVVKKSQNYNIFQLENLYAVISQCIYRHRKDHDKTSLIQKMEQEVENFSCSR
The experiment in a line: Binding affinity to human ATAD2 (979 to 1108 aa) expressed in Escherichia coli BL21 (DE3) by SOFAST-HMQC NMR spectroscopy.

With `Nc1cccc(-c2n[nH]c(-c3ccccc3)n2)c1`, the Kd came out at 350 µM. Next, `Cc1cc2c(cc1N)n(C)c(=O)n2C`: 600 µM.

For orientation: Kd means the equilibrium constant for the complex coming apart. Low values mean tighter binding, high ones weaker binding.
